As usually defined, the CC50 is the concentration that lowers cell viability or growth by half. The EC50 is the concentration giving half of the maximal effect.

A value given as a limit tells only on which side of the number the result lay.

Results on ten molecules are retold here after patent US20230013823A1, “INHIBITORS OF HUMAN IMMUNODEFICIENCY VIRUS REPLICATION” (VIV HEALTHCARE UK (No. 5) LIMITED, priority 2019, published 2023).

Data set [1] in a line: Compound cytotoxicity, XTT-based colorimetric assay. Format: cell-based. The settings on record: human; uninfected MT2 cells, day 4, XTT. As to the method: Compound cytotoxicity and the corresponding CC50 values were determined using the same protocol as described in the antiviral assay except that uninfected cells were used. Cytotoxicity was assessed on day 4 in uninfected MT2 cells by using an XTT (2,3-bis[2-Methoxy-4-nitro-5-sulfophenyl]-2H-tetrazolium-5-carboxyanilide inner salt)-based colorimetric assay (Sigma-Aldrich, St Louis, Mo.).

Data set [2] has as its system recombinant NL4-3 virus (Renilla luciferase in nef). Put plainly: HIV cell culture assay (antiviral activity, luciferase readout in MT-2 cells). The class given is cell-based. The settings on record: Renilla, NL43. As to the method: HIV cell culture assay—MT=2 cells, 293T cells and the proviral DNA clone of NL4-3 virus were obtained from the NIH AIDS Research and Reference Reagent Program. MT=2 cells were propagated in RPMI 1640 media supplemented with 10% heat inactivated fetal bovine serum (FBS), […] penicillin G and up to 100 units/mL streptomycin. The 293T cells were propagated in DMEM media supplemented with 10% heat inactivated FBS, […] penicillin G and […] streptomycin. A recombinant NL4-3 proviral clone, in which a section of the nef gene was replaced with the Renilla luciferase gene, was used to make the reference virus used in these studies. The recombinant virus was prepared through transfection of the recombinant NL4-3 proviral clone into 293T cells using Transit-293 Transfection Reagent from Mirus Bio LLC (Madison, Wis.). Supernatent was harvested after 2-3 days and the amount of virus present was titered in MT=2 cells using luciferase enzyme activity as a marker by measuring luciferase enzyme activity. Luciferase was quantitated using the EnduRen Live Cell Substrate from Promega (Madison, Wis.). Antiviral activities of compounds toward the recombinant virus were quantified by measuring luciferase activity in MT=2 cells infected for 4-5 days with the recombinant virus in the presence of serial dilutions of the compound.
The 50% effective concentration (EC50) was calculated by using the exponential form of the median effect equation where (Fa)=1/[1+(ED50/drug conc.)m] (Johnson V A, Byington R T. Infectivity Assay. In Techniques in HIV Research. ed. Aldovini A, Walker B D. 71-76. New York: Stockton Press. 1990). The 50% inhibitory concentration (EC50) was calculated by using the exponential form of the median effect equation where percent inhibition=1/[1+(EC50/drug concentration)m], where m is a parameter that reflects the slope of the concentration-response curve.

`Cn1nc(NS(C)(=O)=O)c2c(Cl)ccc(-n3c([C@H](Cc4cc(F)cc(F)c4)NC(=O)Cn4nc(C(F)F)c5c4C(F)(F)[C@@H]4C[C@H]54)nc4cc(-c5cnn(CC(F)F)c5)ccc4c3=O)c21` (atropisomer, axis not shown; (P)) [Example 34, N—((S)-1-((3P)-3-(4-chloro-1-methyl-3-(methylsulfonamido)-1H-indazol-7-yl)-7-(1-(2,2-difluoroethyl)-1H-pyrazol-4-yl)-4-oxo-3,4-dihydroquinazolin-2-yl)-2-(3,5-difluorophenyl)ethyl)-2-((3bS,4aR)-3-(difluoromethyl)-5,5-difluoro-3b,4,4a,5-tetrahydro-1H-cyclopropa[3,4]cyclopenta[1,2-c]pyrazol-1-yl)acetamide]: in data set [1], the CC50 at 4 days was above 100 nM. In data set [2], the EC50 stood at 0.054 nM.
Consider `Cn1nc(NS(C)(=O)=O)c2c(Cl)ccc(-n3c([C@H](Cc4cc(F)cc(F)c4)NC(=O)Cn4nc(C(F)F)c5c4C(F)(F)[C@@H]4C[C@H]54)nc4cc(-c5ccn(CCOC(F)(F)F)n5)ccc4c3=O)c21` (atropisomer, axis not shown; (P)) [Example 54, N—((S)-1-((3P)-3-(4-chloro-1-methyl-3-(methylsulfonamido)-1H-indazol-7-yl)-4-oxo-7-(1-(2-(trifluoromethoxy)ethyl)-1H-pyrazol-3-yl)-3,4-dihydroquinazolin-2-yl)-2-(3,5-difluorophenyl)ethyl)-2-((3bS,4aR)-3-(difluoromethyl)-5,5-difluoro-3b,4,4a,5-tetrahydro-1H-cyclopropa[3,4]cyclopenta[1,2-c]pyrazol-1-yl)acetamide], for which the CC50 at 4 days in data set [1] was above 100 nM. The EC50 in data set [2] was 0.098 nM.
Molecule `Cn1nc(NS(C)(=O)=O)c2c(Cl)ccc(-n3c([C@H](Cc4cc(F)cc(F)c4)NC(=O)Cn4ccc(C5CC5)n4)nc4cc(-c5ccn(CC(C)(F)F)n5)ccc4c3=O)c21` (atropisomer, axis not shown; (P)) [Example 61, (S)—N-(1-((3P)-3-(4-chloro-1-methyl-3-(methylsulfonamido)-1H-indazol-7-yl)-7-(1-(2,2-difluoropropyl)-1H-pyrazol-3-yl)-4-oxo-3,4-dihydroquinazolin-2-yl)-2-(3,5-difluorophenyl)ethyl)-2-(3-cyclopropyl-1H-pyrazol-1-yl)acetamide] gave a CC50 at 4 days in data set [1] above 100 nM. For the same molecule, the EC50 in data set [2] is 0.057 nM.
For `Cn1nc(NS(C)(=O)=O)c2c(Cl)ccc(-n3c([C@H](Cc4cc(F)cc(F)c4)NC(=O)Cn4nc(C(F)F)c5c4C(F)(F)[C@@H]4C[C@H]54)nc4cc(-c5ccc6scnc6c5)ccc4c3=O)c21` (atropisomer, axis not shown; (P)) [Example 45, N—((S)-1-(7-(benzo[d]thiazol-5-yl)-(3P)-3-(4-chloro-1-methyl-3-(methylsulfonamido)-1H-indazol-7-yl)-4-oxo-3,4-dihydroquinazolin-2-yl)-2-(3,5-difluorophenyl)ethyl)-2-((3bS,4aR)-3-(difluoromethyl)-5,5-difluoro-3b,4,4a,5-tetrahydro-1H-cyclopropa[3,4]cyclopenta[1,2-c]pyrazol-1-yl)acetamide], in that order: above 100 nM and 0.44 nM.
For `Cn1nc(NS(C)(=O)=O)c2c(Cl)ccc(-n3c([C@H](Cc4cc(F)cc(F)c4)NC(=O)Cn4nc(C(F)F)c5c4C(F)(F)[C@@H]4C[C@H]54)nc4cc(-c5ncc(Cl)cc5F)ccc4c3=O)c21` (atropisomer, axis not shown; (P)) [Example 8, N—((S)-1-((3P)-3-(4-chloro-1-methyl-3-(methylsulfonamido)-1H-indazol-7-yl)-7-(5-chloro-3-fluoropyridin-2-yl)-4-oxo-3,4-dihydroquinazolin-2-yl)-2-(3,5-difluorophenyl)ethyl)-2-((3bS,4aR)-3-(difluoromethyl)-5,5-difluoro-3b,4,4a,5-tetrahydro-1H-cyclopropa[3,4]cyclopenta[1,2-c]pyrazol-1-yl)acetamide], in that order: above 500 nM and 0.3 nM.
In data set [1], `Cn1nc(NS(C)(=O)=O)c2c(Cl)ccc(-n3c([C@H](Cc4cc(F)cc(F)c4)NC(=O)Cn4nc(C(F)F)c5c4C(F)(F)[C@@H]4C[C@H]54)nc4cc(-c5nccnc5C(F)(F)F)ccc4c3=O)c21` (atropisomer, axis not shown; (P)) [Example 23, N—((S)-1-((3P)-3-(4-chloro-1-methyl-3-(methylsulfonamido)-1H-indazol-7-yl)-4-oxo-7-(3-(trifluoromethyl)pyrazin-2-yl)-3,4-dihydroquinazolin-2-yl)-2-(3,5-difluorophenyl)ethyl)-2-((3bS,4aR)-3-(difluoromethyl)-5,5-difluoro-3b,4,4a,5-tetrahydro-1H-cyclopropa[3,4]cyclopenta[1,2-c]pyrazol-1-yl)acetamide] gave a CC50 at 4 days above 100 nM. The EC50 in data set [2] was 0.071 nM.
With `Cn1nc(NS(C)(=O)=O)c2c(Cl)ccc(-n3c([C@H](Cc4cc(F)cc(F)c4)NC(=O)Cn4nc(C(F)F)c5c4C(F)(F)[C@@H]4C[C@H]54)nc4cc(-c5cc(C(F)(F)F)ncn5)ccc4c3=O)c21` (atropisomer, axis not shown; (P)) [Example 25, N—((S)-1-((3P)-3-(4-chloro-1-methyl-3-(methylsulfonamido)-1H-indazol-7-yl)-4-oxo-7-(6-(trifluoromethyl)pyrimidin-4-yl)-3,4-dihydroquinazolin-2-yl)-2-(3,5-difluorophenyl)ethyl)-2-((3bS,4aR)-3-(difluoromethyl)-5,5-difluoro-3b,4,4a,5-tetrahydro-1H-cyclopropa[3,4]cyclopenta[1,2-c]pyrazol-1-yl)acetamide], the 50% cytotoxic concentration (CC50) at 4 days in data set [1] was above 100 nM. For the same molecule, the EC50 in data set [2] was determined as 0.083 nM.
For `Cn1nccc1-c1ccc2c(=O)n(-c3ccc(Cl)c4c(NS(C)(=O)=O)nn(C)c34)c([C@H](Cc3cc(F)cc(F)c3)NC(=O)Cn3nc(C(F)F)c4c3C(F)(F)[C@@H]3C[C@H]43)nc2c1` (atropisomer, axis not shown; (P)) [Example 20, N—((S)-1-((3P)-3-(4-chloro-1-methyl-3-(methylsulfonamido)-1H-indazol-7-yl)-7-(1-methyl-1H-pyrazol-5-yl)-4-oxo-3,4-dihydroquinazolin-2-yl)-2-(3,5-difluorophenyl)ethyl)-2-((3bS,4aR)-3-(difluoromethyl)-5,5-difluoro-3b,4,4a,5-tetrahydro-1H-cyclopropa[3,4]cyclopenta[1,2-c]pyrazol-1-yl)acetamide], in that order: above 500 nM and 0.056 nM.
As for `Cn1nc(NS(C)(=O)=O)c2c(Cl)ccc(-n3c([C@H](Cc4cc(F)cc(F)c4)NC(=O)Cn4nc(C(F)F)c5c4C(F)(F)[C@@H]4C[C@H]54)nc4cc(-c5ccnc(C(F)(F)F)n5)ccc4c3=O)c21` (atropisomer, axis not shown; (P)) [Example 27, N—((S)-1-((3P)-3-(4-chloro-1-methyl-3-(methylsulfonamido)-1H-indazol-7-yl)-4-oxo-7-(2-(trifluoromethyl)pyrimidin-4-yl)-3,4-dihydroquinazolin-2-yl)-2-(3,5-difluorophenyl)ethyl)-2-((3bS,4aR)-3-(difluoromethyl)-5,5-difluoro-3b,4,4a,5-tetrahydro-1H-cyclopropa[3,4]cyclopenta[1,2-c]pyrazol-1-yl)acetamide], the CC50 at 4 days in data set [1] is above 100 nM. Moreover, in data set [2], the EC50 came to 0.066 nM.
For `Cn1nc(NS(C)(=O)=O)c2c(Cl)ccc(-n3c([C@H](Cc4cc(F)cc(F)c4)NC(=O)Cn4nc(C(F)F)c5c4C(F)(F)[C@@H]4C[C@H]54)nc4cc(-c5ccc6ncsc6c5)ccc4c3=O)c21` (atropisomer, axis not shown; (P)) [Example 44, N—((S)-1-(7-(benzo[d]thiazol-6-yl)-(3P)-3-(4-chloro-1-methyl-3-(methylsulfonamido)-1H-indazol-7-yl)-4-oxo-3,4-dihydroquinazolin-2-yl)-2-(3,5-difluorophenyl)ethyl)-2-((3bS,4aR)-3-(difluoromethyl)-5,5-difluoro-3b,4,4a,5-tetrahydro-1H-cyclopropa[3,4]cyclopenta[1,2-c]pyrazol-1-yl)acetamide], in that order: above 100 nM and 0.61 nM.
